Experiments:
[1] = target: T1, acyl CoA: alcohol acyl transferase (Simmondsia chinensis, UniProt Q9XGY6); test: Acyl CoA: alcohol acyl transferase activity in the membrane preparation; type: biochemical, jojoba; details: 0.3% w/v in the assay mixture
T1 construct: activity which is also present in the membrane preparation; from tissue; host or cells: microsomal membrane preparation (jojoba embryos)
T1 sequence (Q9XGY6 1-352): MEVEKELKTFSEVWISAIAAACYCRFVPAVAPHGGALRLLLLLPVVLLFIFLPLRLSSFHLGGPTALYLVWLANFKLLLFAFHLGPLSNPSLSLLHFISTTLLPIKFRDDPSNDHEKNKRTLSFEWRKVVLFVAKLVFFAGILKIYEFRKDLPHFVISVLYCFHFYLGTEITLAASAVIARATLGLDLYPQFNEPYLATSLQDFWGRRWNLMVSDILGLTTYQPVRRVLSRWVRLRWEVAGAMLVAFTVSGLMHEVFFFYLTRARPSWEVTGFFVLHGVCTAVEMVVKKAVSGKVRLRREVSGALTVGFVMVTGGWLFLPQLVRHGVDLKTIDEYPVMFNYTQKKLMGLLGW
Text: If it is desired to inhibit an acyl CoA: alcohol acyl transferase activity which is also present in the membrane preparation (and which consumes the product of the reductase reaction), 0.3% w/v CHAPS is included in the assay mixture.

[2] = target: jojoba acyl-CoA reductase (Simmondsia chinensis, UniProt Q9XGY7, S459G); test: biochemical; details: 0.3% w/v in the assay mixture
jojoba acyl-CoA reductase, sequence (Q9XGY7 whole entry S459G): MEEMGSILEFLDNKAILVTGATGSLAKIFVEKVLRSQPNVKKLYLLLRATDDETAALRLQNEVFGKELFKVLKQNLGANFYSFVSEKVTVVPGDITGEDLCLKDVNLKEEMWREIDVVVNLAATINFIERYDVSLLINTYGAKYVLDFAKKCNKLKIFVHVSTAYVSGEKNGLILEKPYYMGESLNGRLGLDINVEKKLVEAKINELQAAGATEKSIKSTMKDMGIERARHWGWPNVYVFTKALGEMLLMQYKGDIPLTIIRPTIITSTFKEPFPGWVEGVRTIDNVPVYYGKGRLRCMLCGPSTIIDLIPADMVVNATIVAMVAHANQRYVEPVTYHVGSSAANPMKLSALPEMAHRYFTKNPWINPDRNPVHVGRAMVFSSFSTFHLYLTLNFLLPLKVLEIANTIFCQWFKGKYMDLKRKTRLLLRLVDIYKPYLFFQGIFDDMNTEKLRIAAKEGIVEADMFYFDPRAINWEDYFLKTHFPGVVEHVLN
Experimental: […] The incubation mixture also contains 10% w/v glycerol, 1 mM DTT, and is buffered with 50 mM HEPES (4-[2-hydroxyethyl]-1-piperazineethane-sulfonic acid) (HEPES, here and as referred to hereafter is added from a 1M stock solution adjusted to pH 7.5).
[…] The assay is terminated by placing the assay tube on ice and immediately adding 0.25 ml isopropanol:acetic acid (5:1 v/v). Unlabeled wax esters (0.1 mg) and oleyl alcohol (0.1 mg) are added as carriers. The [^14 C] lipids are extracted by the scaled-down protocol of Hara and Radin (Anal. Biochem. (1978) 90:420). Six ml of hexane/isopropanol (3:2, v/v) is added to the terminated assay. The sample is vortexed, 2 ml of aqueous sodium sulphate solution (5.5% w/v) is added, and the sample is again vortexed.
The incubation mixture also contains 10% w/v glycerol, 1 mM DTT, and is buffered with 50 mM HEPES (4-[2-hydroxyethyl]-1-piperazineethane-sulfonic acid) (HEPES, here and as referred to hereafter is added from a 1M stock solution adjusted to pH 7.5). […]
[…] The assay is terminated by placing the assay tube on ice and immediately adding 0.25 ml isopropanol:acetic acid (4:1 v/v). Unlabeled wax esters (25 μg), oleyl alcohol (50 μg), and oleic acid (50 μg) are added as carriers. The [^14 C] lipids are extracted by the scaled-down protocol of Hara and Radin (Anal. Biochem. (1978) 90:420). Four ml of hexane/isopropanol (3:2, v/v) is added to the terminated assay. The sample is vortexed, 2 ml of aqueous sodium sulphate solution (6.7% w/v) is added, and the sample is again vortexed.
Following addition of the sodium sulphate and vortexing the sample, the upper organic phase is removed and the lower aqueous phase is washed with 4 ml hexane/isopropanol (7:2 v/v). The organic phases are pooled and evaporated to dryness under nitrogen. The lipid residue is resuspended in a small volume of heptane, and an aliquot is assayed for radioactivity by liquid scintillation counting. The remainder of the sample can be used either for TLC analysis of the labeled classes, or for derivatization to cleave the wax esters, and thereby give a measure of total alcohol produced.
For lipid class analysis the sample is applied to a silica TLC plate, and the plate is developed in hexane/diethyl ether/acetic acid (such as 80:20:1 or 70:30:1 v/v/v). The distribution of radioactivity between the lipid classes, largely wax esters (when ligase is present, as in the microsomal membrane preparation assay), free fatty acids, fatty alcohols, and polar lipids at the origin, is measured using an AMBIS radioanalytic imaging system (AMBIS Systems Inc., San Diego, Calif.). If necessary the individual lipid classes can be recovered from the TLC plate for further analysis.
Following addition of the sodium sulfate and vortexing the sample, a known percentage of the organic phase is removed and counted via liquid scintillation counting. This calculation is used to estimate the total counts in the organic phase.

C[C@H](CCC(=O)NCCC[N+](C)(C)CCCS(=O)(=O)[O-])[C@H]1CC[C@H]2[C@@H]3[C@H](O)C[C@@H]4C[C@H](O)CC[C@]4(C)[C@H]3C[C@H](O)[C@]12C [CHAPS, 3-[(3-cholamidopropyl)-dimethyl-ammonio]-1-propanesulfonate]
effect on the acyl transferase reaction (in words) [1]: completely inhibits
effect on the reductase enzyme (in words) [2]: minimal effect

From US5723747A, “Wax esters in transformed plants” (Calgene, Inc., priority 1994, dated 1998)
